The test system of this assay is C. elegans Q35::YFP muscle, polyQ foci count microscopy. Put plainly: PubChem AID 651963. The conditions noted are these: at 10 µM; stronger effect = lower value.

The structures appear in SMILES notation.

As to `COc1ccc(/C=C/C=C2C(=O)NC(=O)NC2=O)cc1`, the relative foci was 33.8%.

(Values after PubChem BioAssay AID651963 (The Scripps Research Institute Molecular Screening Center, 2012).)
